# Results published in patent publication US20250213614A1, “Modified RELA Protein for Inducing Interferon Expression and Engineered Immune Cells with Improved Interferon Expression” (Institut Curie, priority 2022, published 2025).
# B1: cGAS: pTRIP-SFFV-EGFP-FLAG-cGAS over-expression (protein, UniProt Q8N884 1-522, looked up)
# Cyclic GMP-AMP synthase: MQPWHGKAMQRASEAGATAPKASARNARGAPMDPTESPAAPEAALPKAGKFGPARKSGSRQKKSAPDTQERPPVRATGARAKKAPQRAQDTQPSDATSAPGAEGLEPPAAREPALSRAGSCRQRGARCSTKPRPPPGPWDVPSPGLPVSAPILVRRDAAPGASKLRAVLEKLKLSRDDISTAAGMVKGVVDHLLLRLKCDSAFRGVGLLNTGSYYEHVKISAPNEFDVMFKLEVPRIQLEEYSNTRAYYFVKFKRNPKENPLSQFLEGEILSASKMLSKFRKIIKEEINDIKDTDVIMKRKRGGSPAVTLLISEKISVDITLALESKSSWPASTQEGLRIQNWLSAKVRKQLRLKPFYLVPKHAKEGNGFQEETWRLSFSHIEKEILNNHGKSKTCCENKEEKCCRKDCLKLMKYLLEQLKERFKDKKHLDKFSSYHVKTAFFHVCTQNPQDSQWDRKDLGLCFDNCVTYFLQCLRTEKLENYFIPEFNLFSSNLIDKRSKEFLTKQIEYERNNEFPVFDEF
# modifications: EGFP, FLAG tag
# notes: pTRIP-SFFV-EGFP-FLAG-cGAS over-expression
# B2: NLS-cGAS: pTRIP-SFFV-EGFP-NLS-FLAG-cGAS, nuclear localization signal cGAS over-expression (protein, UniProt Q8N884 1-522, looked up)
# Cyclic GMP-AMP synthase: B1 Cyclic GMP-AMP synthase
# modifications: EGFP, NLS, FLAG tag
# notes: pTRIP-SFFV-EGFP-NLS-FLAG-cGAS, nuclear localization signal cGAS over-expression
# B3: RELA K310R: RELA with lysine 310 substituted for arginine, expressed from lentivector (protein)
# chain: MDELFPLIFPAEPAQASGPYVEIIEQPKQRGMRFRYKCEGRSAGSIPGERSTDTTKTHPTIKINGYTGPGTVRISLVTKDPPHRPHPHELVGKDCRDGFYEAELCPDRCIHSFQNLGIQCVRRRDLEQAISQRIQTNNNPFQVPIEEQRGDYDLNAVRLCFQVTVRDPSGRPLRLPPVLSHPIFDNRAPNTAELKICRVNRNSGSCLGGDEIFLLCDKVQKEDIEVYFTGPGWEARGSFSQADVHRQVAIVFRTPPYADPSLQAPVRVSMQLRRPSDRELSEPMEFQYLPDTDDRHRIEEKRKRTYETFRSIMRRSPFSGPTDPRPPPRRIAVPSRSSASVPKPAPQPYPFTSSLSTINYDEFPTMVFPSGQISQASALAPAPPQVLPQAPAPAPAPAMVSALAQAPAPVPVLAPGPPQAVAPPAPKPTQAGEGTLSEALLQLQFDDEDLGALLGNSTDPAVFTDLASVDNSEFQQLLNQGIPVAPHTTEPMLMEYPEAITRLVTGAQRPPDPAPAPLGAPGLPNGLLSGDEDFSSIADMDFSALLSQISS
# Assays:
# Format in all cases: cell-based, human
# [1] = tested on: STING, TBK1, IRF3, RELA, IRF7; assay: Western blot of key signaling proteins involved in STING signaling; details: for cGAMP-mediated STING signaling: CD4+ T cells treated with TSA or 5AZA, FIG. 3E
# Experimental: 0.5 million cells were lysed for 30 minutes on ice in 50 μl RIPA buffer (50 mM Tris HCl, 150 mM NaCl, 0.1% SDS, 0.5% DOC, 1% NP-40) with Protease inhibitor (Roche #1187358001). To evaluate, phospho-proteins 50 mM NaF and 1 mM sodium orthovanadate were added to the lysis buffer. Protein lysates were cleared by centrifugation at 12,000 g for 10 to 12 minutes at 4° C. 10 μl of 6× Laemmli buffer (fisher scientific #J61337) was added to 50 μl protein lysates and samples were boiled at 95° C. for 15 minutes. Protein samples were resolved on 4%-20% Biorad precast SDS-PAGE gels (#5671125) and transferred onto PVDF membranes (BioRad #1704157). Membranes were blocked in 5% non-fat dry milk in PBS 0.1% tween or in TBS 5% BSA 0.1% Tween to detect phosphorylated proteins. Primary antibodies were used at 1:1000:phospho-STING (clone-D7C3S), STING (clone-D2P2F), serine 172 phospho-TBK1 (clone-D52C2), TBK1 (clone-D11B4), serine 396 phospho IRF3 (clone-D6O1M), IRF3 (clone-D83B9), RELA (clone-C22B4), IRF7 (clone-12G9A36), cGAS (clone-D1 D3G), Actin (clone-C4), Sendai viral proteins (Biozol #MBL-PD029). Secondary anti-rabbit or anti-mouse antibody were used at 1:10,000 (santa cruz #sc-2357, #sc-516102). ECL signal (Biorad #1705061 and #1705062) was recorded on a ChemiDoc Touch Biorad Imager. Data was analyzed and quantified with Image Lab software (Biorad). In figures, dotted lines indicate reordering of lanes from a single original membrane for visualization purpose.
# [2] = tested on: CD4+ T cells; assay: IFN-I/III quantification (LEGENDplex) in CD4+ T cells, baseline or after STING stimulation; details: for IFNλ1 response to cGAMP under epigenetic inhibitor: CD4+ T cells, TSA 100 nM or 5AZA 2 μM, FIG. 3D; for IFN-I/III: over-expression of cGAS or NLS-cGAS in CD4+ T cells, data not shown
# Experimental: (§1) Plasmapheresis blood pockets were obtained from healthy adult volunteers after informed consent from the EFS (Establishment of French blood collection). Peripheral blood mononuclear cells (PBMCs) were isolated using Ficoll-Paque Plus (GE-17144003) and left overnight at 4° C. in RPMI (Thermo fischer #61870-010) with 10% heat-decomplemented fetal bovine serum (FBS, Eurobio #CVFSVFO0-01). CD14+ cells were enriched by positive selection (Miltenyi #130-050-201), the CD14 negative fraction was subsequently used to isolate total CD4+ T cells by negative selection (Stem Cell #17952). CD14+ cells were cultured in RPMI containing 10% FBS, 5% Penicillin-Streptomycin (PS, Thermo Fisher #10378-016), 50 μg/ml Gentamicin (Thermo Fisher #15750-045) and 10 mM HEPES (Thermo Fisher #15630-056). CD14+ cells were differentiated ex vivo into MDDC by supplementing the culture media with 50 ng/ml IL-4 (Miltenyi #130-093-922) and 10 ng/ml GM-CSF (Miltenyi #130-093-867). MDDC were used for experiments 3 or 4 days following the start of the culture. CD14+ cells were differentiated ex vivo into macrophages by adding 50 ng/ml MCSF (Miltenyi #130-096-492) to the culture media containing RPMI with 1% PS, 5% FBS and 5% human serum (Sigma #H4522). MDM were used 7 days following culture. Freshly isolated CD4+ T cells were cultured in X-VIVO 15 (Lonza #BE02-060F) and activated using anti-CD3 and anti-CD28 Dynabeads (fisher scientific #10548353) at the ratio of 1:5 (bead:cell). 100 U/ml human IL-2 (Immunotools #11340027) was added to cultures 2 days following TCR stimulation and media with IL-2 was replenished every 48 hours. To assess proliferation, freshly isolated CD4+ T cells were stained with cell proliferation dye (thermo fischer #65-0840-85) prior to TCR stimulation.
# (§2) CD14+ cells were plated at 1 million cells/ml and transduced with equal volumes of freshly harvested SIV-VLPs and pTRIP-SFFV vectors in the presence of 8 μg/ml protamine (Sigma #P4020). CD4+ T cells were transduced with lentivectors 24 hours post-TCR stimulation in 100 μl of cells (0.2 million cells) and 100 μl of freshly harvested lentivirus in the presence of 8 μg/ml protamine. T cells were spinoculated at 1200 g for 2 hours at 25° C. 0.5 million THP-1 cells in 500 μl media (RPMI 10% FBS 1% PS) were transduced with 500 μl freshly harvested lentivirus in the presence of 8 μg/ml protamine. 1 μg/ml Puromycin (Invivogen #ant-pr-1) was added 2 days post-transduction when cells were transduced with pLKO.1-puro plasmid.
# For stimulation of STING by extracellular ligands, 2.5 μg of ADUS100 (invivogen #tlrl-nacda2r-01) or 2′3′-cGAMP (cGAMP, invivogen #tlrl-nacga23-02) was added to 100,000 cells in 100 μl media either on freshly isolated primary cells or 3-4 days post differentiation for MDDC and 3 days post-TCR stimulation for CD4+ T cells. Cells and supernatant were harvested 18-24 hours post stimulation. For delivery of STING ligands after permeabilization, T cells were used 3 or 4 days post TCR stimulation and MDDC were used 3-4 days following differentiation. 150,000 cells were plated in round bottom 96-well plate. Media was removed by centrifugation and 20 μl 2× permeabilization buffer (100 mM HEPES, 200 mM KCl, 6 mM MgCl2, 0.2 mM DTT, 170 mM Sucrose, 2 mM ATP, 2 mM GTP, 0.4% bovine serum albumin (BSA), 20 μg/ml digitonin) and 20 μl cGAMP (12 μg/ml) was added to cells. 18 to 20 hours following stimulation supernatants and cells were harvested. Cells were stained with a fixable viability dye (Invitrogen #65-0865-14) and acquired on a FACSVerse (BD). […]
# Where indicated, cells were treated with 5-Azacytidine (5AZA, Sigma #A2385) 48 hours prior to cGAMP stimulation. Fresh 5AZA was added daily to cells, and media was replenished with 5AZA following cGAMP stimulation. 100 nM Trichostatin A (TSA) (sigma #T1952) was added to cells following cGAMP stimulation and left overnight. […]
# [3] = tested on: MDDC; assay: IFN-I/III quantification (LEGENDplex) in MDDC after STING stimulation
# Experimental: as §1, §2
# For stimulation of STING by extracellular ligands, 2.5 μg of ADUS100 (invivogen #tlrl-nacda2r-01) or 2′3′-cGAMP (cGAMP, invivogen #tlrl-nacga23-02) was added to 100,000 cells in 100 μl media either on freshly isolated primary cells or 3-4 days post differentiation for MDDC and 3 days post-TCR stimulation for CD4+ T cells. Cells and supernatant were harvested 18-24 hours post stimulation. For delivery of STING ligands after permeabilization, T cells were used 3 or 4 days post TCR stimulation and MDDC were used 3-4 days following differentiation. 150,000 cells were plated in round bottom 96-well plate. Media was removed by centrifugation and 20 μl 2× permeabilization buffer (100 mM HEPES, 200 mM KCl, 6 mM MgCl2, 0.2 mM DTT, 170 mM Sucrose, 2 mM ATP, 2 mM GTP, 0.4% bovine serum albumin (BSA), 20 μg/ml digitonin) and 20 μl cGAMP (12 μg/ml) was added to cells. 18 to 20 hours following stimulation supernatants and cells were harvested. Cells were stained with a fixable viability dye (Invitrogen #65-0865-14) and acquired on a FACSVerse (BD).
# For experiments with conditioned media, CD4+ T cell- and MDDC-conditioned media refer to […] filtered conditioned media from cultures of activated CD4+ T cell and MDDC, respectively. CD4+ T cells were pretreated with 100 μl of MDDC-conditioned media or of fresh MDDC culture media, 24 hours prior to cGAMP stimulation. […]
# [4] = TCR-activated CD4+ T cells, ADU-S100 2.5 μg, FIG. 1D
molecule,measurement,setting,value
"CC(/C=C/C(=O)NO)=C\[C@@H](C)C(=O)c1ccc(N(C)C)cc1 [TSA, Trichostatin A, reference compound]",cGAMP-mediated STING signaling,[1],intact
same,IFN expression at baseline with RELA K5R and after cGAMP stimulation,[2]; CD4+ T cells treated with TSA,inhibits IFN expression
same,IFNλ1 response to cGAMP under epigenetic inhibitor,[2],reduced the already low IFNλ1 production
"IFNγ: recombinant type II interferon, 10 ng/ml",IFN-I/III response to cGAMP,"[3]; MDDC treated with recombinant IFNγ 10 ng/ml 24 hours before cGAMP, FIG. 1H",sufficient to enhance
"Nc1ncnc2c1ncn2[C@@H]1O[C@@H]2COP(=O)([S-])O[C@@H]3[C@H](O)[C@@H](COP([O-])(=S)O[C@H]2[C@H]1O)O[C@H]3n1cnc2c(N)ncnc21.[Na+].[Na+] (stereo partly drawn) [ADU-S100, reference compound]","IFNλ1 produced by donor-matched MDDC, more than TCR-activated CD4+ T cells","[3]; ADU-S100 2.5 μg, FIG. 1D",10 fold
same,IFNβ production,"[3]; donor-matched MDDC, ADU-S100 2.5 μg, FIG. 1D",high levels
same,IFN-I induction,[2]; [4],no detectable IFN-I
same,IFN-III induction,[2]; [4],induced IFN-III
same,IFN response to STING ligands,"[2]; resting blood CD4+ T cells, soluble ligand 1 μg or 2.5 μg, FIG. 1B",undetectable
"shRNA 1: pLKO.1-puro-IRF7sh1, shRNA against IRF7, CCCGAGCTGCACGTTCCTATA [reference compound]",IRF7 expression (knock-down),"[1]; CD4+ T cells treated with IFNα2a 1000 U/ml, FIG. 4B",more potent
same,induction of IFNα2 by cGAMP stimulation,"[2]; CD4+ T cells expressing only RELA K5R, IRF7 knock-down, FIG. 4C",abolished
"Nc1ncn([C@@H]2O[C@H](CO)[C@@H](O)[C@H]2O)c(=O)n1 [5AZA, 5-Azacytidine, reference compound]",cGAMP-mediated STING signaling,[1],did not occur through detectable increase
same,IFNλ1 response to cGAMP under epigenetic inhibitor,[2],enhanced the IFNλ1 response to cGAMP
B1,IFN-I/III,[2],remained undetectable
B2,IFN-I/III,[2],remained undetectable
B3,IFNλ1 after cGAMP stimulation,"[2]; lentivector overexpression in CD4+ T cells, FIG. 2B, 2D, 2F",augmented in the presence of cGAMP
same,IFNα2 in response to cGAMP,"[2]; lentivector overexpression in CD4+ T cells, FIG. 2D, 2F",detected
same,baseline IFNλ1 expression,"[2]; lentivector overexpression in CD4+ T cells, no cGAMP, FIG. 2D, 2F",increased baseline IFNλ1 similar to RELA K5R
